Measurements as given in US20240148833A1, “COMPOSITION COMPRISING GLP-1 RECEPTOR AGONIST AND ACAT INHIBITOR” (EFIL BioScience Inc., priority 2022, published 2024).
Read-outs that look alike come from different tables or passages of the source.

Assays:
[1] = daily intraperitoneal (ip) 20 mg/kg BW avasimibe for 14 day; cited from earlier work
[2] = Cohort 2: histological measurement of adipocyte size in inguinal fat pad (H&E); format: in vivo, male C57BL/6 mice; conditions: sc every three days for 23 days
Procedure: (§1) Cohort 2: The second set of animal experiments were conducted according to a protocol approved by the Purdue Animal Care and Use Committee (protocol number: 11129000347). Male C57BL/6 DIO mice were purchased from Jackson Laboratory. After 8-week HF diet feeding, mice were randomly assigned to the same groups as cohort 1: control, avasimibe, semaglutide, and combination groups. Avasimibe (20 mg/kg BW) and semaglutide (0.04 mg/kg BW) were prepared in the method used with regard to Cohort 1, and the drugs were sc injected every three days for 23 days. Mice were kept on a 12/12 h light/dark cycle in a humidity and temperature control facility with ad libitum access to food and water.
During animal sacrifice, adipose tissues were rinsed with saline solution, fixed in 10% neutral formalin buffered solution, and embedded in paraffin. The tissues were then cut into […] sections and stained with hematoxylin and eosin (H&E) to measure cell size (˜100 cells/mouse) by ImageJ software (NIH).

[3] = Cohort 2: oral glucose tolerance test (OGTT); format: in vivo, male C57BL/6 mice; conditions: sc every three days, avasimibe 20 mg/kg BW; D-glucose 2 g/kg BW oral after 6 h fast
Procedure: as §1, with “water. Mice were fasted for 6 hrs (07:00-13:00) prior to oral administration of D-glucose (2 g/kg BW). Tail blood samples were obtained before (at 0) and at 15, 30, 60, 90 and 120 minutes after glucose challenge for the measurement of blood glucose concentration using a CONTOUR® NEXT glucometer (Ascensia Diabetes Care, Parsippany, NJ, USA).” for “water.”

[4] = Cohort 1: daily sc administration in morbidly obese DIO mice, body weight, food intake, organ weight; format: in vivo, male C57BL/6 mice; conditions: for mean body weight change, % of starting body weight: initial 4-week period (day 28), avasimibe 10 mg/kg BW, semaglutide 0.04 mg/kg BW, HF diet
Procedure: (§2) Cohort 1: The first set of animal study was conducted at Nonclinical Research Institute, ChemOn Inc., and experimental procedures were approved by Institutional Animal Care and Use Committee (serial number 2021-09-007). Eight-week-old male C57BL/6 mice were purchased (Orient Bio Inc., Republic of Korea). After 2-week acclimation, the mice were fed with high-fat (HF) diet (cat #: D12492, Research Diets Inc.) for 12 weeks to develop DIO. These mice were then randomly assigned to control, avasimibe, semaglutide, and combination groups. Avasimibe solution was prepared for making the final concentration of avasimibe at 10 mg/kg BW, as described in Y. Zhu, S. Q. Kim, Y. Zhang, Q. Liu, K. H. Kim, Pharmacological inhibition of acyl-coenzyme A:cholesterol acyltransferase alleviates obesity and insulin resistance in diet-induced obese mice by regulating food intake, Metabolism 123 (2021) 154861, which is incorporated herein by reference. Semaglutide stock solution prepared in DMSO (1 mg/ml) was diluted with PBS for the final concentration of 0.04 mg/kg BW. The drug solution or the vehicle solution at a volume of 10 μl/g BW was injected to the mice sc daily for the indicated days.
Cohort 1 mice were used to investigate whether combined treatment with semaglutide and a lower dose avasimibe compared to single semaglutide injection in morbidly obese mice (FIG. 1A). On the first day of the experiment, the average body weight of the mice was recorded as 48.84±2.26 grams (FIG. 1B). […] Mice in the vehicle control and avasimibe groups were sacrificed after additional 16 days of treatment (FIG. 1A). Throughout the initial 4-week period, the mean body weight of the vehicle-treated animals increased by 1.2% compared to their starting body weight. In contrast, the mean body weight changes for mice treated with avasimibe, semaglutide, or the combination of both drugs were −6.29%, −21.66%, and −30.47% of their starting body weight, respectively (FIG. 1C). […] Y. Zhu, S. Q. Kim, Y. Zhang, Q. Liu, K. H. Kim, Pharmacological inhibition of acyl-coenzyme A:cholesterol acyltransferase alleviates obesity and insulin resistance in diet-induced obese mice by regulating food intake, Metabolism 123 (2021) 154861, which is incorporated herein by reference. Consequently, we increased the avasimibe dose to 20 mg/kg BW in the subsequent study involving the second cohort of mice. […] However, as the treatment regimen continued, food intake gradually returned to baseline levels, and the effect of semaglutide diminished around day 26. […] To investigate potential toxic effects of the combination treatment on the liver, we measured plasma ALT and AST levels.

[5] = Cohort 2: sc administration every three days for 23 days in moderately obese DIO mice, body weight and food intake; format: in vivo, male C57BL/6 mice; conditions: for mean body weight loss, % of the starting body weight: sc every three days for 23 days, avasimibe 20 mg/kg BW, HF diet
Procedure: as §1, with “water. To validate the impact of the combined treatment of semaglutide and avasimibe in DIO mice and to simulate a weekly semaglutide regimen for humans, we utilized Cohort 2 mice (FIG. 2A). On day 1, the average body weight of the mice was recorded as 37.37±3.58 grams. Throughout the treatment period, the mice in the vehicle group continued to gain weight, reaching an average body weight of 41.58±4.74 grams, representing a […] increase from the starting body weight (FIG. 2B). […] Specifically, the mean body weight losses were 0.82%, 8.56%, and 14.89% of the starting body weight for the mice treated with avasimibe, semaglutide, and the combination of both drugs, respectively (FIG. 2C).” for “water.”

[6] = format: in vivo, male C57BL/6 mice; set-up: Plasma Cholesterol / Plasma CE (cholesteryl ester): unit not given here; conditions: mean±SEM, n=10
Procedure: as §2
Body composition (e.g., fat mass, lean mass, free water, and total water) changes were assessed right before sacrificing the second cohort of mice using EchoMRI (Echo Medical Systems). Blood samples were obtained after fasting for 3h, frozen and stored until analysis. Aspartate transaminase (AST), alanine aminotransferase (ALT), glucose, triglycerides (TG), high-density lipoprotein (HDL-C) and low-density lipoprotein cholesterol (LDL-C) were also measured (AU680 Chemistry Analyzer, Beckman Coulter). The levels of serum leptin (cat #: ab100718, Abcam) and insulin (cat #: ab277390, Abcam) were determined by enzyme-linked immunosorbent assay kit and cholesterol/CE (cat #: ab65359, Abcam) was determined by an enzymatic assay according to the manufacturers' instructions.

[7] = Day 43, daily sc avasimibe 10 mg/kg BW
[8] = Day 29, daily sc semaglutide 0.04 mg/kg BW with or without avasimibe 10 mg/kg BW

CC(C)c1cc(C(C)C)c(CC(=O)NS(=O)(=O)Oc2c(C(C)C)cccc2C(C)C)c(C(C)C)c1 [Avasimibe, avasimibe]
reduction in body weight [1]: 24% | percentage of large adipocytes (20,001-100,000 μm^2) compared to vehicle group [2]: lower percentage | percentage of small adipocytes (5,001-10,000 μm^2) compared to vehicle group [2]: significantly higher percentage | glucose tolerance in OGTT [3]: did not enhance glucose tolerance | mean body weight change, % of starting body weight ([4]; daily sc): −6.29% | mean body weight loss, % of the starting body weight ([5]; semaglutide 0.04 mg/kg BW): 0.82% | Plasma Glucose [6, 7]: 139.7 ± 6.32 mg/dL | Plasma HDL [6, 7]: 35.13 ± 1.14 mg/dL | Plasma Insulin [6, 7]: 1.43 ± 0.29 mIU/mL | Plasma LDL [6, 7]: 7.14 ± 0.46 mg/dL | Plasma Leptin [6, 7]: 6.72 ± 1.40 pg/mL | Plasma TG (triglyceride) [6, 7]: 33.80 ± 2.09 mg/dL

semaglutide
percentage of large adipocytes (40,001-100,000 μm^2) compared to vehicle group [2]: lower percentage | day around which the effect on food intake diminished ([4]; daily sc semaglutide 0.04 mg/kg BW): ~26 days | mean body weight change, % of starting body weight ([4]; daily sc): −21.66% | food intake compared to vehicle or avasimibe alone ([4]; daily sc, early treatment period): rapid suppression of food intake | mean body weight loss, % of the starting body weight ([5]; semaglutide 0.04 mg/kg BW): 8.56% | time for food intake to recover after each administration ([5]; sc every three days, semaglutide 0.04 mg/kg BW): ≤ 48 h | food intake by day 22, versus vehicle group ([5]; sc every three days, by the seventh administration): surpass that of the vehicle group | Plasma CE (cholesteryl ester) [6, 8]: 7.071 ± 0.240 | Plasma Cholesterol [6, 8]: 8.055 ± 0.292 | Plasma Glucose [6, 8]: 121.73 ± 6.26 mg/dL | Plasma HDL [6, 8]: 37.02 ± 1.14 mg/dL | Plasma Insulin [6, 8]: 0.41 ± 0.07 mIU/mL | Plasma LDL [6, 8]: 5.05 ± 0.60 mg/dL | Plasma Leptin [6, 8]: 2.99 ± 0.65 pg/mL | Plasma TG (triglyceride) [6, 8]: 21.60 ± 1.38 mg/dL
